Measurements from US9695155B2, “Herbicidal substituted pyrimidinyloxy benzene compounds” (E. I. DU PONT DE NEMOURS AND COMPANY, priority 2013, dated 2017).

Assays:
bearded sprangletop = assay: Test G flood (paddy water application); format: in vivo, Leptochloa fascicularis; conditions: after 21 days, scale 0 to 100, 0 no effect, 100 complete control
From the text: (§1) Three plastic pots (ca. 16-cm diameter) per rate were partially filled with sterilized Tama silt loam soil comprising a 35:50:15 ratio of sand, silt and clay and 2.6% organic matter. Separate plantings for each of the three pots were as follows. Seeds from the U.S. of monochoria (Monochoria vaginalis), sedge, umbrella (small-flower umbrella sedge, Cyperus difformis), hardstem bulrush (Scirpus juncoides), and redstem (purple redstem, Ammannia coccinea), were planted into one 16-cm pot for each rate. Seeds from the U.S. of rice flatsedge (Cyperus iria), bearded sprangletop (Leptochloa fascicularis), one stand of 9 or 10 water seeded rice seedlings (Oryza sativa cv. ‘Japonica—M202’), and two stands of 3 or 4 transplanted rice seedlings (Oryza sativa cv. ‘Japonica—M202’) were planted into one 16-cm pot for each rate. Seeds from the U.S. of barnyardgrass (Echinochloa crus-galli), and late watergrass (Echinochloa oryzicola) were planted into one 16-cm pot for each rate. Plantings were sequential so that crop and weed species were at the 2.0 to 2.5-leaf stage at time of treatment.
(§2) Potted plants were grown in a greenhouse with day/night temperature settings of 30/27° C., and supplemental balanced lighting was provided to maintain a 16-hour photoperiod. Test pots were maintained in the greenhouse until test completion.
(§3) At time of treatment, test pots were flooded to 3 cm above the soil surface, treated by application of test compounds directly to the paddy water, and then maintained at that water depth for the duration of the test. Effects of treatments on rice and weeds were visually evaluated by comparison to untreated controls after 21 days. Plant response ratings, summarized in Table G, are based on a scale of 0 to 100 where 0 is no effect and 100 is complete control. A dash (-) response means no test result.

redstem = assay: Test G flood (paddy water application); format: in vivo, Ammannia coccinea; conditions: after 21 days, scale 0 to 100, 0 no effect, 100 complete control
From the text: as §1, §2, §3

Russian thistle = assay: Test C preemergence; format: in vivo, Salsola kali; conditions: for Russian Thistle plant response rating: preemergence, scale 0 (no effect) to 100 (complete control); for Plant response rating, Russian Thistle: Preemergence, 31 g ai/ha, scale 0 to 100, 0 no effect, 100 complete control
From the text: Seeds of plant species selected from blackgrass (Alopecurus myosuroides), Italian ryegrass (Lolium multiflorum), wheat, winter (winter wheat, Triticum aestivum), galium (catchweed bedstraw, Galium aparine), corn (Zea mays), large (Lg) crabgrass (Digitaria sanguinalis), giant foxtail (Setaria faberii), johnsongrass (Sorghum halepense), lambsquarters (Chenopodium album), morningglory (Ipomoea coccinea), yellow nutsedge (Cyperus esculentus), pigweed (Amaranthus retroflexus), ragweed (common ragweed, Ambrosia elatior), soybean (Glycine max), barnyardgrass (Echinochloa crus-galli), oilseed rape (Brassica napus), waterhemp (common waterhemp, Amaranthus rudis), kochia (Kochia scoparia), wild oat (Avena fatua), surinam grass (Brachiaria decumbens), foxtail, green (green foxtail, Setaria viridis), goosegrass (Eleusine indica), bromegrass, downy (downy bromegrass, Bromus tectorum), nightshade (eastern black nightshade, Solanum ptycanthum), cocklebur (common cocklebur, Xanthium strumarium), cupgrass, woolly (woolly cupgrass, Eriochloa villosa), bermudagrass (Cynodon dactylon), sunflower, (common oilseed sunflower, Helianthus annuus), Russian thistle (Salsola kali), and velvetleaf (Abutilon theophrasti) were planted into a blend of loam soil and sand and treated preemergence with test chemicals formulated in a non-phytotoxic solvent mixture which included a surfactant.
At the same time, plants selected from these crop and weed species and also barley, winter (winter barley, Hordeum vulgare), windgrass (Apera spica-venti), chickweed (common chickweed, Stellaria media), deadnettle (henbit deadnettle, Lamium amplexicaule), and canarygrass (littleseed canarygrass, Phalaris minor) were planted in pots containing Redi-Earth® planting medium (Scotts Company, 14111 Scottslawn Road, Marysville, Ohio 43041) comprising spaghnum peat moss, vermiculite, wetting agent and starter nutrients and treated with postemergence applications of test chemicals formulated in the same manner. Plants ranged in height from 2 to 18 cm (1- to 4-leaf stage) for postemergence treatments. Treated plants and controls were maintained in a greenhouse for 13 to 15 days, after which time all species were compared to controls and visually evaluated. Plant response ratings, summarized in Table C, are based on a scale of 0 to 100 where 0 is no effect and 100 is complete control. A dash (-) response means no test result.

hardstem bulrush = assay: Test G flood (paddy water application); format: in vivo, Scirpus juncoides; conditions: after 21 days, scale 0 to 100, 0 no effect, 100 complete control
From the text: as §1, §2, §3

rice flatsedge = assay: Test G flood (paddy water application); format: in vivo, Cyperus iria; conditions: after 21 days, scale 0 to 100, 0 no effect, 100 complete control
From the text: as §1, §2, §3

smartweed = assay: Test E preemergence; format: in vivo, ladysthumb smartweed; conditions: for Smartweed plant response rating: scale 0 to 100 (0 no effect, 100 complete control); for Plant response rating, Smartweed: scale 0 to 100, 0 no effect, 100 complete control
From the text: Seeds of plant species selected from corn (Zea mays), soybean (Glycine max), velvetleaf (Abutilon theophrasti), lambsquarters (Chenopodium album), wild poinsettia (Euphorbia heterophylla), palmer pigweed (Amaranthus palmeri), waterhemp (common waterhemp, Amaranthus rudis), surinam grass (Brachiaria decumbens), large (Lg) crabgrass (Digitaria sanguinalis), Brazilian crabgrass (Digitaria horizontalis), fall panicum (Panicum dichotomiflorum), giant foxtail (Setaria faberii), green foxtail (Setaria viridis), goosegrass (Eleusine indica), johnsongrass (Sorghum halepense), ragweed (common ragweed, Ambrosia elatior), barnyardgrass (Echinochloa crus-galli), sandbur (southern sandbur, Cenchrus echinatus), arrowleaf sida (Sida rhombifolia), Italian ryegrass (Lolium multiflorum), dayflower (Virginia (VA) dayflower, Commelina virginica), field bindweed (Convolvulus arvensis), morningglory (Ipomoea coccinea), nightshade (eastern black nightshade, Solanum ptycanthum), kochia (Kochia scoparia), yellow nutsedge (Cyperus esculentus), cocklebur (common cocklebur, Xanthium strumarium), smartweed (ladysthumb smartweed, and hairy beggarticks (Bidens pilosa), were planted into a silt loam soil and treated preemergence with test chemicals formulated in a non-phytotoxic solvent mixture which included a surfactant.
At the same time, plants from these crop and weed species and also horseweed (Canada horseweed, Conyza canadensis), waterhemp_RES1, (ALS & Triazine resistant common waterhemp, Amaranthus rudis), and waterhemp_RES2, (ALS & HPPD resistant common waterhemp, Amaranthus rudis) were planted in pots containing Redi-Earth® planting medium (Scotts Company, 14111 Scottslawn Road, Marysville, Ohio 43041) comprising spaghnum peat moss, vermiculite, wetting agent and starter nutrients were treated with postemergence applications of test chemicals formulated in the same manner. Plants ranged in height from 2 to 18 cm for postemergence treatments (1- to 4-leaf stage). Treated plants and controls were maintained in a greenhouse for 14 to 21 days, after which time all species were compared to controls and visually evaluated. Plant response ratings, summarized in Table E, are based on a scale of 0 to 100 where 0 is no effect and 100 is complete control. A dash (-) response means no test result.

| Compound | Plant response rating, Sprangletop, Brdd. (bearded sprangletop; 32 g ai/ha) | Plant response rating, Sprangletop, Brdd. (bearded sprangletop; 64 g ai/ha) | Plant response rating, Sprangletop, Brdd. (bearded sprangletop; 125 g ai/ha) | Plant response rating, Sprangletop, Brdd. (bearded sprangletop; 250 g ai/ha) | Plant response rating, Redstem (redstem; 32 g ai/ha) | Plant response rating, Redstem (redstem; 64 g ai/ha) | Plant response rating, Redstem (redstem; 125 g ai/ha) | Plant response rating, Redstem (redstem; 250 g ai/ha) | Russian Thistle plant response rating (Russian thistle; 62 g ai/ha) | Russian Thistle plant response rating (Russian thistle; 125 g ai/ha) | Russian Thistle plant response rating (Russian thistle; 250 g ai/ha) | Plant response rating, Russian Thistle (Russian thistle) | Plant response rating, Bulrush, Hardstem (hardstem bulrush; 32 g ai/ha) | Plant response rating, Bulrush, Hardstem (hardstem bulrush; 64 g ai/ha) | Plant response rating, Bulrush, Hardstem (hardstem bulrush; 125 g ai/ha) | Plant response rating, Bulrush, Hardstem (hardstem bulrush; 250 g ai/ha) | Plant response rating, Flatsedge, Rice (rice flatsedge; 32 g ai/ha) | Plant response rating, Flatsedge, Rice (rice flatsedge; 64 g ai/ha) | Plant response rating, Flatsedge, Rice (rice flatsedge; 125 g ai/ha) | Plant response rating, Flatsedge, Rice (rice flatsedge; 250 g ai/ha) | further results |
| --- | --- | --- | --- | --- | --- | --- | --- | --- | --- | --- | --- | --- | --- | --- | --- | --- | --- | --- | --- | --- | --- |
| FC(F)(F)c1cnn(-c2ccccc2Oc2ncc(Cl)cn2)c1 [Compound 16] | 65 | 100 | 100 | 100 | 0 | 60 | 85 | 95 | 80 | 90 | 90 | 0 | 40 | 50 | 65 | 80 | 40 | 85 | 100 | 100 |  |
| N#Cc1cccc(Oc2ncc(F)cn2)c1-n1cc(Cl)cn1 [Compound 73] |  |  |  |  |  |  |  |  |  |  |  |  |  |  |  |  |  |  |  |  | Smartweed plant response rating (smartweed; 16 g ai/ha): 0; Smartweed plant response rating (smartweed; 31 g ai/ha): 0; Smartweed plant response rating (smartweed; 62 g ai/ha): 20; Plant response rating, Smartweed (smartweed; 125 g ai/ha): 98; Plant response rating, Smartweed (smartweed; 250 g ai/ha): 98 |
| FC(F)(F)c1cnn(-c2ccccc2Oc2ncc(Br)cn2)c1 [Compound 18, 5-bromo-2-[2-[4-(trifluoromethyl)-1H-pyrazol-1-yl]phenoxy]pyrimidine] | 70 | 80 | 90 | 100 | 0 | 0 | 75 | 90 | 0 | 95 | 95 | 0 | 0 | 0 | 0 | 85 | 30 | 75 | 100 | 100 |  |
| FC(F)c1cccc(Oc2ncc(Cl)cn2)c1-n1cc(Br)cn1 [Compound 194, 2-[2-(4-bromo-1H-pyrazol-1-yl)-3-(difluoromethyl)phenoxy]-5-chloropyrimidine] |  |  |  |  |  |  |  |  |  |  |  |  |  |  |  |  |  |  |  |  | Smartweed plant response rating (smartweed; 31 g ai/ha): 0; Smartweed plant response rating (smartweed; 62 g ai/ha): 90 |
